Measurements as given in PubChem BioAssay (NCI).
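Compound exposure: 48 hours, 5 concentrations, 96-well plates. Definition used: TGI = concentration required for complete inhibition of growth.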

What was measured:
Assay in all cases: NCI tumour cell line growth inhibition, 48 h
A498 renal = test system: A498 renal
A549 NSCLC = test system: A549 NSCLC
CAKI-1 renal = test system: CAKI-1 renal
CCRF-CEM leukemia = test system: CCRF-CEM leukemia
COLO 205 colon = test system: COLO 205 colon
DLD-1 colon = test system: DLD-1 colon
DMS 114 small cell lung = test system: DMS 114 small cell lung
DMS 273 small cell lung = test system: DMS 273 small cell lung
EKVX NSCLC = test system: EKVX NSCLC
HCC-2998 colon = test system: HCC-2998 colon
HCT-116 colon = test system: HCT-116 colon
HCT-15 colon = test system: HCT-15 colon
HL-60(TB) leukemia = test system: HL-60(TB) leukemia
HOP-18 NSCLC = test system: HOP-18 NSCLC
HOP-62 NSCLC = test system: HOP-62 NSCLC
HOP-92 NSCLC = test system: HOP-92 NSCLC
HT29 colon = test system: HT29 colon
IGROV1 ovarian = test system: IGROV1 ovarian
K-562 leukemia = test system: K-562 leukemia
KM12 colon = test system: KM12 colon
KM20L2 colon = test system: KM20L2 colon
LOX IMVI melanoma = test system: LOX IMVI melanoma
M19-MEL melanoma = test system: M19-MEL melanoma
MALME-3M melanoma = test system: MALME-3M melanoma
MCF7 breast = test system: MCF7 breast
MOLT-4 leukemia = test system: MOLT-4 leukemia
NCI-H226 lung = test system: NCI-H226 lung
NCI-H23 lung = test system: NCI-H23 lung
NCI-H460 lung = test system: NCI-H460 lung
NCI-H522 lung = test system: NCI-H522 lung
NCI/ADR-RES ovarian = test system: NCI/ADR-RES ovarian
OVCAR-3 ovarian = test system: OVCAR-3 ovarian
OVCAR-4 ovarian = test system: OVCAR-4 ovarian
OVCAR-5 ovarian = test system: OVCAR-5 ovarian
OVCAR-8 ovarian = test system: OVCAR-8 ovarian
P388 leukemia = test system: P388 leukemia
P388/ADR leukemia = test system: P388/ADR leukemia
RPMI-8226 leukemia = test system: RPMI-8226 leukemia
RXF 393 renal = test system: RXF 393 renal
SF-268 CNS = test system: SF-268 CNS
SF-295 CNS = test system: SF-295 CNS
SF-539 CNS = test system: SF-539 CNS
SK-MEL-2 melanoma = test system: SK-MEL-2 melanoma
SK-MEL-28 melanoma = test system: SK-MEL-28 melanoma
SK-MEL-5 melanoma = test system: SK-MEL-5 melanoma
SK-OV-3 ovarian = test system: SK-OV-3 ovarian
SN12C renal = test system: SN12C renal
SN12K1 renal = test system: SN12K1 renal
SNB-19 CNS = test system: SNB-19 CNS
SNB-75 CNS = test system: SNB-75 CNS
SNB-78 CNS = test system: SNB-78 CNS
SW-620 colon = test system: SW-620 colon
U251 CNS = test system: U251 CNS
UACC-257 melanoma = test system: UACC-257 melanoma
UACC-62 melanoma = test system: UACC-62 melanoma
UO-31 renal = test system: UO-31 renal
XF 498 CNS = test system: XF 498 CNS
786-0 renal = test system: 786-0 renal
ACHN renal = test system: ACHN renal
LXFL 529 NSCLC = test system: LXFL 529 NSCLC
M14 melanoma = test system: M14 melanoma
RXF-631 renal = test system: RXF-631 renal
TK-10 renal = test system: TK-10 renal
SR leukemia = test system: SR leukemia

Measured: TGI

Cc1c2ccncc2cc2c1[nH]c1ccccc12
38.5 µM: DLD-1 colon
23.5 µM: MCF7 breast
21.8 µM: HOP-62 NSCLC
5.77 µM: NCI-H460 lung
15.2 µM: HOP-92 NSCLC
6.36 µM: HL-60(TB) leukemia
1.89 µM: XF 498 CNS
20.5 µM: MALME-3M melanoma
16.2 µM: NCI-H226 lung | OVCAR-8 ovarian
33.2 µM: OVCAR-4 ovarian
6.01 µM: K-562 leukemia
7.35 µM: HOP-18 NSCLC | LOX IMVI melanoma | RXF 393 renal
32.3 µM: SF-268 CNS
23.2 µM: SK-MEL-2 melanoma
15.9 µM: NCI-H23 lung
9.89 µM: UO-31 renal
12.2 µM: A498 renal
65.2 µM: IGROV1 ovarian
5.91 µM: SK-MEL-28 melanoma
16.9 µM: DMS 114 small cell lung | SF-295 CNS
15.1 µM: A549 NSCLC
17 µM: SNB-75 CNS
22.4 µM: KM20L2 colon
28.1 µM: HCT-15 colon
11.2 µM: SK-MEL-5 melanoma
9.44 µM: SN12K1 renal
7.65 µM: U251 CNS
7.12 µM: HCT-116 colon
25.8 µM: OVCAR-3 ovarian
7.46 µM: P388/ADR leukemia
4.96 µM: DMS 273 small cell lung
> 56.4 µM: NCI/ADR-RES ovarian
10.5 µM: CAKI-1 renal
9.12 µM: SN12C renal
16.3 µM: EKVX NSCLC
15 µM: CCRF-CEM leukemia
6.59 µM: MOLT-4 leukemia
20.7 µM: UACC-62 melanoma
13.6 µM: OVCAR-5 ovarian
5.17 µM: SF-539 CNS
31.5 µM: HT29 colon
34.7 µM: SNB-19 CNS
4.68 µM: SW-620 colon
10.9 µM: M19-MEL melanoma
13.5 µM: UACC-257 melanoma
5.52 µM: P388 leukemia
26.1 µM: SK-OV-3 ovarian
93.3 µM: SNB-78 CNS
15.7 µM: HCC-2998 colon
18.9 µM: NCI-H522 lung
23.9 µM: KM12 colon
8.7 µM: RPMI-8226 leukemia
7.72 µM: COLO 205 colon

CC1=C(C(=O)CC(=O)C(=O)Nc2cc(C)ccc2C)Sc2ccccc2N1
not listed: A498 renal | COLO 205 colon | DMS 273 small cell lung | KM20L2 colon | MCF7 breast | NCI-H460 lung | NCI/ADR-RES ovarian | P388 leukemia | P388/ADR leukemia | SN12K1 renal | SNB-75 CNS | SR leukemia
> 100 µM: all other assays above

Cc1ccc(NC(=O)CCc2nc(N)nc(N)c2-c2ccccc2)cc1C
not listed: LOX IMVI melanoma | MCF7 breast | NCI/ADR-RES ovarian | P388 leukemia | P388/ADR leukemia | RXF 393 renal | SN12K1 renal
> 100 µM: all other assays above
